Source: patent publication US11345708B2, “Substituted imidazo[1,2-a]imidazoles as modulators of metabotropic glutamate receptor 4 activity” (Hoffmann-La Roche Inc., priority 2017, dated 2022)

biological target: T1, human mGlu4 receptor (Homo sapiens, UniProt Q14833); experiment: Ca2+ mobilization in vitro assay on recombinant human mGlu4 expressed in HEK293 cells; assay type: cell-based; conditions: HEK-293 cells stably expressing human mGlu4; L-AP4 added at EC20; Fluo-4 fluorescence; read-out: EC50 (uM) mGlu4 PAM
T1 construct: expressed in transfected cells; host or cells: HEK-293 (monoclonal, stably transfected)
Procedure: Determination of EC50 Values Using a Ca2+ Mobilization In Vitro Assay on Recombinant Human mGlu4 Expressed in HEK293 Cells:
A monoclonal HEK-293 cell line stably transfected with a cDNA encoding for the human mGlu4 receptor was generated; for the work with mGlu4 Positive Allosteric Modulators (PAMs), a cell line with low receptor expression levels and low constitutive receptor activity was selected to allow the differentiation of agonistic versus PAM activity. Cells were cultured according to standard protocols (Freshney, 2000) in Dulbecco's Modified Eagle Medium with high glucose supplemented with 1 mM glutamine, 10% (vol/vol) heat-inactivated bovine calf serum, Penicillin/Streptomycin, 50 μg/ml hygromycin and 15 μg/ml blasticidin (all cell culture reagents and antibiotics from Invitrogen, Basel, Switzerland).
About 24 hrs before an experiment, 5×10^4 cells/well were seeded in poly-D-lysine coated, black/clear-bottomed 96-well plates. The cells were loaded with 2.5 μM Fluo-4 AM in loading buffer (1×HBSS, 20 mM HEPES) for 1 hr at 37° C. and washed five times with loading buffer. The cells were transferred into a Functional Drug Screening System 7000 (Hamamatsu, Paris, France), and 11 half logarithmic serial dilutions of test compound at 37° C. were added and the cells were incubated for 10-30 min. with on-line recording of fluorescence. Following this pre-incubation step, the agonist (2S)-2-amino-4-phosphonobutanoic acid (L-AP4) was added to the cells at a concentration corresponding to EC20 with on-line recording of fluorescence; in order to account for day-to-day variations in the responsiveness of cells, the EC20 of L-AP4 was determined immediately ahead of each experiment by recording of a full dose-response curve of L-AP4.
Responses were measured as peak increase in fluorescence minus basal (i.e. fluorescence without addition of L-AP4), normalized to the maximal stimulatory effect obtained with saturating concentrations of L-AP4. Graphs were plotted with the % maximal stimulatory using XLfit, a curve fitting program that iteratively plots the data using Levenburg Marquardt algorithm. The single site competition analysis equation used was y=A+((B−A)/(1+((x/C)D))), where y is the % maximal stimulatory effect, A is the minimum y, B is the maximum y, C is the EC50, x is the log 10 of the concentration of the competing compound and D is the slope of the curve (the Hill Coefficient). From these curves the EC50 (drug concentration at which 50% of the maximal receptor activation was achieved), the Hill coefficient as well as the maximal response in % of the maximal stimulatory effect obtained with saturating concentrations of L-AP4 were calculated (see Fig. 1).
A depression of the signal observed after addition of the EC20 concentration of L-AP4 was indicative of an inhibitory activity of the test compound.

T1 sequence (Q14833 33-912): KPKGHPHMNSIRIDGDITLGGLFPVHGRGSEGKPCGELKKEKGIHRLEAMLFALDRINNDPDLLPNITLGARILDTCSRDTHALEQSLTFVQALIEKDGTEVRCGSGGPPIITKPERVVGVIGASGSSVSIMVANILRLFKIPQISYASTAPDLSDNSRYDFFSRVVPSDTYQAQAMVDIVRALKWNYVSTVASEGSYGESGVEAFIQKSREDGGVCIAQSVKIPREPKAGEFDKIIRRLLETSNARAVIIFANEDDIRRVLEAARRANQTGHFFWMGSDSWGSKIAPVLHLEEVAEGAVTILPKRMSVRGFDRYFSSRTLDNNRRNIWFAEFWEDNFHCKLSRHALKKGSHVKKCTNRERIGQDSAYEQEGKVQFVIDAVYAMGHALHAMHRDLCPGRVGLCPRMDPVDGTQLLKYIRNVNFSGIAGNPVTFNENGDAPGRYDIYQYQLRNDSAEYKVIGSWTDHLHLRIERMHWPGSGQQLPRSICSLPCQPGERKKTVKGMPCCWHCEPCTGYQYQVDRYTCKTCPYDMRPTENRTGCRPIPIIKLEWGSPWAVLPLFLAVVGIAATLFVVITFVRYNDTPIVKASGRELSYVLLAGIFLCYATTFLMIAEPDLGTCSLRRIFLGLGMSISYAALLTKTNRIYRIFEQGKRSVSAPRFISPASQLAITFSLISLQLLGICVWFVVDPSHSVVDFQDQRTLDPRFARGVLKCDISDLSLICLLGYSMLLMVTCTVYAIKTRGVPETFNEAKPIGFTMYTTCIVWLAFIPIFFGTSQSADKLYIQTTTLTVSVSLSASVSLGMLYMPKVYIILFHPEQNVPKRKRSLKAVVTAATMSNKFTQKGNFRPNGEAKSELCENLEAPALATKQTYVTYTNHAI

Going from `O=C1N(c2c(F)cc(C#Cc3ccccc3)cc2F)c2ncc(CO)n2C12CC2` [Example 55, 7′-[2,6-difluoro-4-(2-phenylethynyl)phenyl]-3′-(hydroxymethyl)spiro[cyclopropane-1,5′-imidazo[1,2-a]imidazole]-6′-one] to `Cn1ccc(-c2cnc3n2C2(CC2)C(=O)N3c2c(F)cc(-c3ccc(C(C)(F)F)cc3)cc2F)n1` [Example 25, 7′-[4-[4-(1,1-difluoroethyl)phenyl]-2,6-difluoro-phenyl]-3′-(1-methylpyrazol-3-yl)spiro[cyclopropane-1,5′-imidazo[1,2-a]imidazole]-6′-one], the EC50 falls from 0.294 µM to 0.1 µM (2.9-fold). The second is the more potent here.

Compared with `O=C1N(c2c(F)cc(N3CCN(CC(F)(F)F)CC3)cc2F)c2ncc(-c3cc[nH]n3)n2C12CC2` [Example 42, 7′-[2,6-difluoro-4-[4-(2,2,2-trifluoroethyl)piperazin-1-yl]phenyl]-3′-(1H-pyrazol-3-yl)spiro[cyclopropane-1,5′-imidazo[1,2-a]imidazole]-6′-one], `Cn1ccc(-c2cnc3n2C2(CC2)C(=O)N3c2c(F)cc(C#Cc3ccccc3)cc2F)n1` [Example 26, 1′-(2,6-difluoro-4-(phenylethynyl)phenyl)-5′-(1-methyl-1H-pyrazol-3-yl)spiro[cyclopropane-1,3′-imidazo[1,2-a]imidazol]-2′(1′H)-one] is 4-fold lower in EC50: 0.417 µM for the first, 0.104 µM for the second.

Compared with `Cc1cnc2n1C1(CC1)C(=O)N2c1c(F)cc(C#Cc2ccccc2)cc1F` [Example 47, 3-[2,6-Difluoro-4-(2-phenylethynyl)phenyl]-6-methyl-2,3-dihydrospiro[[1,3]diazolo[1,2-a]imidazole-1,1′-cyclopropane]-2-one], `CC1C(=O)N(c2c(F)cc(C#Cc3ccccc3)cc2F)c2nccn21` (single isomer, unassigned; enantiomer 1) [Example 3, 1-(2,6-difluoro-4-(phenylethynyl)phenyl)-3-methyl-1H-imidazo[1,2-a]imidazol-2(3H)-one (enantiomer 1)] is 2.5-fold higher in EC50: 0.181 µM for the first, 0.453 µM for the second.

`O=C1N(c2c(F)cc(C#Cc3cccnc3)cc2F)c2ncc(-c3ccncn3)n2C12CC2` [Example 16, 7′-[2,6-difluoro-4-[2-(3-pyridyl)ethynyl]phenyl]-3′-pyrimidin-4-yl-spiro[cyclopropane-1,5′-imidazo[1,2-a]imidazole]-6′-one] and `CC(C)(C)c1cnn(-c2cc(F)c(N3C(=O)C4(CC4)n4c(-c5ccncn5)cnc43)c(F)c2)c1` [Example 15, 7′-[4-(4-tert-butylpyrazol-1-yl)-2,6-difluoro-phenyl]-3′-pyrimidin-4-yl-spiro[cyclopropane-1,5′-imidazo[1,2-a]imidazole]-6′-one] are within 1.5-fold of each other in EC50: 0.237 µM for the first, 0.232 µM for the second.

`O=C1N(c2c(F)cc(C#Cc3ccccc3)cc2F)c2ncc(-c3ccncn3)n2C12CC2` [Example 18, 3′-[2,6-Difluoro-4-(2-phenylethynyl)phenyl]-6′-(pyrimidin-4-yl)-2′,3′-dihydrospiro[cyclopropane-1,1′-imidazo-[1,2-a][1,3]diazole]-2′-one] and `O=C(Nc1cc(F)c(N2C(=O)C3(CC3)n3ccnc32)c(F)c1)c1ccccn1` [Example 7, N-[3,5-difluoro-4-(6′-oxospiro[cyclopropane-1,5′-imidazo[1,2-a]imidazole]-7′-yl)phenyl]pyridine-2-carboxamide] are within 1.5-fold of each other in EC50: 0.361 µM for the first, 0.541 µM for the second.

Compared with `O=C1N(c2c(F)cc(C#Cc3ccccc3)cc2F)c2ncc(-c3ccncc3)n2C12CC2` [Example 32, 3-[2,6-Difluoro-4-(2-phenylethynyl)phenyl]-6-(pyridin-4-yl)-2,3-dihydrospiro[[1,3]diazolo[1,2-a]imidazole-1,1′-cyclopropane]-2-one], `CC(C)(C)c1cnn(-c2cc(F)c(N3C(=O)C4(CC4)n4c(-c5ccccn5)cnc43)c(F)c2)c1` [Example 19, 7′-[4-(4-tert-butylpyrazol-1-yl)-2,6-difluoro-phenyl]-3′-(2-pyridyl)spiro[cyclopropane-1,5′-imidazo[1,2-a]imidazole]-6′-one] is 2.7-fold higher in EC50: 0.156 µM for the first, 0.426 µM for the second.

First: 7′-[2,6-difluoro-4-[2-(3-pyridyl)ethynyl]phenyl]-3′-(2-methylpyrazol-3-yl)spiro[cyclopropane-1,5′-imidazo[1,2-a]imidazole]-6′-one [Example 30]
Second: O=C(Nc1cc(F)c(N2C(=O)C3(CC3)n3c(C4(O)COC4)cnc32)c(F)c1)c1ccccn1 [Example 51, N-[3,5-difluoro-4-[3′-(3-hydroxyoxetan-3-yl)-6′-oxo-spiro[cyclopropane-1,5′-imidazo[1,2-a]imidazole]-7′-yl]phenyl]pyridine-2-carboxamide]
The EC50 of the first is 2.5-fold lower: 0.143 µM for the first, 0.363 µM for the second. The first is the more potent here.

Going from `O=C1N(c2c(F)cc(C#Cc3ccccc3)cc2F)c2ncc(-c3cn[nH]c3)n2C12CC2` [Example 41, 3-[2,6-Difluoro-4-(2-phenylethynyl)phenyl]-6-(1H-pyrazol-4-yl)-2,3-dihydrospiro[[1,3]diazolo[1,2-a]imidazole-1,1′-cyclopropane]-2-one] to `CC(O)c1cnc2n1C1(CC1)C(=O)N2c1c(F)cc(C#Cc2ccccc2)cc1F` (stereo not shown) [Example 59, 7′-[2,6-difluoro-4-(2-phenylethynyl)phenyl]-3′-(1-hydroxyethyl)spiro[cyclopropane-1,5′-imidazo[1,2-a]imidazole]-6′-one], the EC50 rises from 0.238 µM to 0.824 µM (3.5-fold). The first is the more potent here.

First: Cn1ccc(-c2cnc3n2C2(CC2)C(=O)N3c2c(F)cc(-c3ccc(OC(F)F)cc3)cc2F)n1 [Example 45, 7′-[4-[4-(difluoromethoxy)phenyl]-2,6-difluoro-phenyl]-3′-(1-methylpyrazol-3-yl)spiro[cyclopropane-1,5′-imidazo[1,2-a]imidazole]-6′-one]
Second: O=C1N(c2c(F)cc(C#Cc3ccccc3)cc2F)c2ncc(-c3ccccn3)n2C12CC2 [Example 12, 3-[2,6-Difluoro-4-(2-phenylethynyl)phenyl]-6-(pyridin-2-yl)-2,3-dihydrospiro[[1,3]diazolo[1,2-a]imidazole-1,1′-cyclopropane]-2-one]
The EC50 of the first is 8.2-fold higher: 0.621 µM for the first, 0.076 µM for the second. The second is the more potent here.

`O=C1N(c2c(F)cc(C#Cc3ccccc3)cc2F)c2ncc(-c3cccnc3)n2C12CC2` [Example 33, 3-[2,6-Difluoro-4-(2-phenylethynyl)phenyl]-6-(pyridin-3-yl)-2,3-dihydrospiro[[1,3]diazolo[1,2-a]imidazole-1,1′-cyclopropane]-2-one] and `Cn1cc(-c2cnc3n2C(C)(C)C(=O)N3c2c(F)cc(C#Cc3ccccc3)cc2Cl)cn1` [Example 34, 1-(2-chloro-6-fluoro-4-(phenylethynyl)phenyl)-3,3-dimethyl-5-(1-methyl-1H-pyrazol-4-yl)-1H-imidazo[1,2-a]imidazol-2(3H)-one] are within 1.5-fold of each other in EC50: 0.178 µM for the first, 0.195 µM for the second.

Compared with `Cn1cc(-c2cnc3n2C2(CC2)C(=O)N3c2c(F)cc(C#Cc3cccnc3)cc2F)cn1` [Example 37, 1′-(2,6-difluoro-4-(pyridin-3-ylethynyl)phenyl)-5′-(1-methyl-1H-pyrazol-4-yl)spiro[cyclopropane-1,3′-imidazo[1,2-a]imidazol]-2′(1′H)-one], `Cn1cnc(-c2cnc3n2C2(CC2)C(=O)N3c2c(F)cc(C#Cc3cccnc3)cc2F)c1` [Example 20, 7′-[2,6-difluoro-4-[2-(3-pyridyl)ethynyl]phenyl]-3′-(1-methylimidazol-4-yl)spiro[cyclopropane-1,5′-imidazo[1,2-a]imidazole]-6′-one] is 1.9-fold higher in EC50: 0.229 µM for the first, 0.442 µM for the second.

Going from `O=C(Nc1cc(F)c(N2C(=O)C3(CC3)n3c(-c4ccncn4)cnc32)c(F)c1)c1ccccn1` [Example 13, N-[3,5-difluoro-4-(6′-oxo-3′-pyrimidin-4-yl-spiro[cyclopropane-1,5′-imidazo[1,2-a]imidazole]-7′-yl)phenyl]pyridine-2-carboxamide] to `CC1C(=O)N(c2c(F)cc(C#Cc3ccccc3)cc2F)c2nccn21` (single isomer, unassigned; enantiomer 2) [Example 4, 1-(2,6-difluoro-4-(phenylethynyl)phenyl)-3-methyl-1H-imidazo[1,2-a]imidazol-2(3H)-one (enantiomer 2)], the EC50 rises from 0.077 µM to 0.758 µM (9.8-fold).

In the case of `Cn1nccc1-c1cnc2n1C1(CC1)C(=O)N2c1c(F)cc(C#Cc2cccnc2)cc1F` [Example 46, 7′-[2,6-difluoro-4-[2-(3-pyridyl)ethynyl]phenyl]-3′-(2-methylpyrazol-3-yl)spiro[cyclopropane-1,5′-imidazo[1,2-a]imidazole]-6′-one], the EC50 is reported as 0.673 µM.
